Data on 13 compounds can be found in patent US9040545B2, “Heterocyclyl pyrazolopyrimidine analogues as selective JAK inhibitors” (Cellzome Limited, priority 2010, dated 2015).

Some results are limits rather than exact numbers.

This test has as its target T1, JAK2 (Homo sapiens, UniProt O60674).
T1 construct: endogenous in cells; host or cells: mixed Molt4/Ramos lysate (1:2)
Kind of test: Kinobeads assay, JAK2. Type of test: binding. To be noted: mixed Molt4/Ramos lysate, read-out: Inhibition values (IC50) JAK2. The protocol:
The compounds of the present invention as described in the previous examples were tested in a Kinobeads™ assay as described for ZAP-70 (WO-A 2007/137867). Briefly, test compounds (at various concentrations) and the affinity matrix with the immobilized aminopyrido-pyrimidine ligand 24 were added to cell lysate aliquots and allowed to bind to the proteins in the lysate sample. After the incubation time the beads with captured proteins were separated from the lysate. Bound proteins were then eluted and the presence of JAK2 and JAK3 was detected and quantified using specific antibodies in a dot blot procedure and the Odyssey infrared detection system. Dose response curves for individual kinases were generated and IC50 values calculated. Kinobeads™ assays for ZAP-70 (WO-A 2007/137867) and for kinase selectivity profiling (WO-A 2006/134056) have been previously described.
The affinity matrix was washed two times with 15 mL of 1×DP buffer containing 0.2% NP40 (IGEPAL® CA-630, Sigma, #I3021) and then resuspended in 1×DP buffer containing 0.2% NP40 (3% beads slurry).
5×DP buffer 250 mM Tris-HCl pH 7.4, 25% Glycerol, 7.5 mM MgCl2, 750 mM NaCl, 5 mM Na3VO4; filter the 5×DP buffer through a 0.22 μm filter and store in aliquots at −80° C. The 5×DP buffer is diluted with H2O to 1×DP buffer containing 1 mM DTT and 25 mM NaF.
Stock solutions of test compounds were prepared in DMSO. In a 96 well plate 30 μL solution of diluted test compounds at 5 mM in DMSO were prepared. Starting with this solution a 1:3 dilution series (9 steps) was prepared. For control experiments (no test compound) a buffer containing 2% DMSO was used.
Molt4 cells (ATCC catalogue number CRL-1582) and Ramos cells (ATCC catalogue number CRL-1596) were grown in 1 L Spinner flasks (Integra Biosciences, #182101) in suspension in RPMI 1640 medium (Invitrogen, #21875-034) supplemented with 10% Fetal Bovine Serum (Invitrogen) at a density between 0.15×106 and 1.2×10^6 cells/mL. Cells were harvested by centrifugation, washed once with 1×PBS buffer (Invitrogen, #14190-094) and cell pellets were frozen in liquid nitrogen and subsequently stored at −80° C. Cells were homogenized in a Potter S homogenizer in lysis buffer: 50 mM Tris-HCl, 0.8% NP40, 5% glycerol, 150 mM NaCl, 1.5 mM MgCl2, 25 mM NaF, 1 mM sodium vanadate, 1 mM DTT, pH 7.5. One complete EDTA-free tablet (protease inhibitor cocktail, Roche Diagnostics, 1873580) per 25 mL buffer was added. The material was dounced 10 times using a mechanized POTTER S, transferred to 50 mL falcon tubes, incubated for 30 minutes on ice and spun down for 10 minutes at 20,000 g at 4° C. (10,000 rpm in Sorvall SLA600, precooled). The supernatant was transferred to an ultracentrifuge (UZ)-polycarbonate tube (Beckmann, 355654) and spun for 1 hour at 100,000 g at 4° C. (33.500 rpm in Ti50.2, precooled). The supernatant was transferred again to a fresh 50 mL falcon tube, the protein concentration was determined by a Bradford assay (BioRad) and samples containing 50 mg of protein per aliquot were prepared. The samples were immediately used for experiments or frozen in liquid nitrogen and stored frozen at −80° C.
Cell lysate (approximately 50 mg protein per plate) was thawed in a water bath at room temperature and then stored on ice. To the thawed cell lysate 1×DP 0.8% NP40 buffer containing protease inhibitors (1 tablet for 25 mL buffer; EDTA-free protease inhibitor cocktail; Roche Diagnostics 1873580) was added in order to reach a final protein concentration of 10 mg/mL total protein. The diluted cell lysate was stored on ice. Mixed Molt4/Ramos lysate was prepared by combining one volume of Molt4 lysate and two volumes of Ramos lysate (ratio 1:2).
To a 96 well filter plate (Multiscreen HTS, BV Filter Plates, Millipore #MSBVN1250) were added per well: 100 μL affinity matrix (3% beads slurry), 3 μL of compound solution, and 50 μL of diluted lysate. […]

T1 sequence (O60674 whole entry): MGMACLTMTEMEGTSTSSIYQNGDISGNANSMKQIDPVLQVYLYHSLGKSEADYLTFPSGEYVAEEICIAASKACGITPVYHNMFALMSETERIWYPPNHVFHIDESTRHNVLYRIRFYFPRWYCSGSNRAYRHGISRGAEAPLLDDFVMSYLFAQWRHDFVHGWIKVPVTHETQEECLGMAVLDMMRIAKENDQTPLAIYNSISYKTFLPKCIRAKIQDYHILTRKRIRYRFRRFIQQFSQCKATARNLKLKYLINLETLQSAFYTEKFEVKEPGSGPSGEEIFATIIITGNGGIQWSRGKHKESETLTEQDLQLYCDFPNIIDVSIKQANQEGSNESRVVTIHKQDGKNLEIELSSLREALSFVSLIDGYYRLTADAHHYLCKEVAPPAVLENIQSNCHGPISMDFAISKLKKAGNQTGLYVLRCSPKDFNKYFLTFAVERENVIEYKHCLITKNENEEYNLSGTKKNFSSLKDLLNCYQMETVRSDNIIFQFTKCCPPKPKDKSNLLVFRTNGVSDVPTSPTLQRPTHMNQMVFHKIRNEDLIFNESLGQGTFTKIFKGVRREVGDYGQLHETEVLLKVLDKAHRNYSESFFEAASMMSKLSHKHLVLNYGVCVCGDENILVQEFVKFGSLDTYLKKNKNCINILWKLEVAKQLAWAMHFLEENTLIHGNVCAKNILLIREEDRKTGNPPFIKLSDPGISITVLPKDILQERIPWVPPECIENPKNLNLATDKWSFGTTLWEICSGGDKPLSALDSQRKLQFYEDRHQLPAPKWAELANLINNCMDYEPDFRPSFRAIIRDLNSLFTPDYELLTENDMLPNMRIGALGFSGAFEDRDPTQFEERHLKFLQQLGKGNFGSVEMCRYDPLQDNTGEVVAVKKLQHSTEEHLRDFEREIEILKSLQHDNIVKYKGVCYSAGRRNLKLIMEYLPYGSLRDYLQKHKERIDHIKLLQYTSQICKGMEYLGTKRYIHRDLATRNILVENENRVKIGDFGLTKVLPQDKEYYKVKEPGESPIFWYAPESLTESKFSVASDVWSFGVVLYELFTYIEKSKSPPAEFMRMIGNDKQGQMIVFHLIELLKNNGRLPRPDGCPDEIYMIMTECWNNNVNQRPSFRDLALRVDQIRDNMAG

Turning to `CN(C)CC(O)Cn1cc(Nc2ncc3cnn(Cc4cccc(N5CCOCC5)c4)c3n2)cn1` (stereo not shown) [Example 33, 1-(Dimethylamino)-3-(4-((1-(3-morpholinobenzyl)-1H-pyrazolo[3,4-d]pyrimidin-6-yl)amino)-1H-pyrazol-1-yl)propan-2-ol], the 50% inhibitory concentration (IC50) is ≥ 10 µM.
The same measure for `Cn1cc(Nc2ncc3cnn(Cc4cc(F)cc(N5CCNCC5)c4F)c3n2)cn1` [Example 95, 1-(2,5-difluoro-3-(piperazin-1-yl)benzyl)-N-(1-methyl-1H-pyrazol-4-yl)-1H-pyrazolo[3,4-d]pyrimidin-6-amine]: 0.1 to 1 µM; for `NCCCn1cc(Nc2ncc3cnn(Cc4cccc(N5CCOCC5)c4)c3n2)cn1` [Example 34, N-(1-(3-Aminopropyl)-1H-pyrazol-4-yl)-1-(3-morpholinobenzyl)-1H-pyrazolo[3,4-d]pyrimidin-6-amine]: ≥ 10 µM; for `N#CCCn1cc(Nc2ncc3cnn(Cc4cc(F)cc(N5CCOCC5=O)c4)c3n2)cn1` [Example 107, 3-(4-((1-(3-fluoro-5-(3-oxomorpholino)benzyl)-1H-pyrazolo[3,4-d]pyrimidin-6-yl)amino)-1H-pyrazol-1-yl)propanenitrile]: 1 to 10 µM.
As for `C[C@H]1COCCN1c1cccc(Cn2ncc3cnc(Nc4cnn(C)c4)nc32)c1` [Example 112, (S)-N-(1-methyl-1H-pyrazol-4-yl)-1-(3-(3-methylmorpholino)benzyl)-1H-pyrazolo[3,4-d]pyrimidin-6-amine], the IC50 is ≥ 10 µM.
For `OCCn1cc(Nc2ncc3cnn(Cc4cc(F)cc(N5CCNCC5)c4F)c3n2)cn1` [Example 96, 2-(4-((1-(2,5-difluoro-3-(piperazin-1-yl)benzyl)-1H-pyrazolo[3,4-d]pyrimidin-6-yl)amino)-1H-pyrazol-1-yl)ethanol] the value was 0.1 to 1 µM.
Regarding `Cn1cc(Nc2ncc3cnn(Cc4c(F)c(F)cc(C(=O)N5CCOCC5)c4F)c3n2)cn1` [Example 110, morpholino(2,4,5-trifluoro-3-((6-((1-methyl-1H-pyrazol-4-yl)amino)-1H-pyrazolo[3,4-d]pyrimidin-1-yl)methyl)phenyl)methanone], the half-inhibitory concentration (IC50) was 0.1 to 1 µM.
For `Cn1cc(Nc2ncc3cnn(Cc4cccc(N5CCNCC5=O)c4)c3n2)cn1` [Example 36, 1-(3-((6-((1-Methyl-1H-pyrazol-4-yl)amino)-1H-pyrazolo[3,4-d]pyrimidin-1-yl)methyl)phenyl)piperazin-2-one] the value was ≥ 10 µM; for `Cn1cc(Nc2ncc3cnn(Cc4cccc(C5CCOCC5)c4)c3n2)cn1` [Example 9, N-(1-Methyl-1H-pyrazol-4-yl)-1-(3-(tetrahydro-2H-pyran-4-yl)benzyl)-1H-pyrazolo[3,4-d]pyrimidin-6-amine], ≥ 10 µM.
The same measure for `Cn1cc(Nc2ncc3cnn(Cc4cccc(N5CCCCC5)c4)c3n2)cn1` [Example 8, N-(1-Methyl-1H-pyrazol-4-yl)-1-(3-(piperidin-1-yl)benzyl)-1H-pyrazolo[3,4-d]pyrimidin-6-amine]: ≥ 10 µM.
As to `NC(=O)CCn1cc(Nc2ncc3cnn(Cc4cccc(N5CCOCC5)c4)c3n2)cn1` [Example 14, 3-(4-((1-(3-Morpholinobenzyl)-1H-pyrazolo[3,4-d]pyrimidin-6-yl)amino)-1H-pyrazol-1-yl)propanamide], the 50% inhibitory concentration (IC50) is ≥ 10 µM.
On to `OCCn1cc(Nc2ncc3cnn(Cc4cc(F)cc(N5CCNCC5)c4)c3n2)cn1` [Example 93, 2-(4-((1-(3-fluoro-5-(piperazin-1-yl)benzyl)-1H-pyrazolo[3,4-d]pyrimidin-6-yl)amino)-1H-pyrazol-1-yl)ethanol], for which the IC50 lay in the range of 1 to 10 µM.
For `Cn1cc(Nc2ncc3cnn(Cc4cccc(N5CCNCC5)c4)c3n2)cn1` [Example 22, N-(1-Methyl-1H-pyrazol-4-yl)-1-(3-(piperazin-1-yl)benzyl)-1H-pyrazolo[3,4-d]pyrimidin-6-amine] the value was 1 to 10 µM.

As a reminder, the IC50 is the concentration needed to halve the response being measured.
